Test results published in paper PMC12818745 (ACS Chemical Neuroscience, 2025).

Target: T1, Tau protein aggregation (Homo sapiens, UniProt P10636)
T1 construct: For the cloning and overexpression of full-length tau protein; expressed in transfected cells; host or cells: E. coli BL21 (DE3) carrying pTARA and pRKT42
Test: Thioflavin S assay of tau protein aggregation in E. coli cells overexpressing tau
Format: cell-based, Escherichia coli
Conditions: read-out: Tau inhibition %
Experimental: The antiaggregating profiles of both series A and B were evaluated using a fluorescence Thioflavin S (ThS) assay in cellulo, which monitors ThS fluorescence in the presence of β-sheet-rich structures, such as Aβ and tau protein aggregates. This method, based on recombinant Escherichia coli (E. coli) bacteria overexpressing insoluble aggregates, offers a simple and cost-effective approach to model aggregation processes in mammalian systems and has been validated for use in drug discovery studies. , Compounds were tested at a screening concentration of 50 μM for their ability to inhibit Aβ42 aggregation. The results, summarized in Table , reveal distinct antiaggregating profiles between series A and B, which are once again influenced by their structural differences.
This strategic extension aimed to validate the chromeno[3,4-b]-xanthone scaffold for related aggregation targets, considering the structural and pathological similarities between Aβ and tau aggregation processes. […]. […] Nevertheless, it is important to interpret the results cautiously, as the inability of certain compounds to cross bacterial membranes, may have underestimated their true inhibitory activity in the assay.
For the cloning and overexpression of full-length tau protein, E. coli BL21 (DE3) competent cells were transformed first with the pTARA vector containing the RNA polymerase gene of phage T7 (T7RP), controlled by the PBAD promoter. Subsequently, E. coli BL21(DE3) competent cells containing pTARA were transformed with the pRKT42 vector encoding four repeats of tau protein in two inserts. Similar to the procedure for Aβ42, overnight cultures were prepared by inoculating colonies of BL21 (DE3) cells bearing the plasmids in M9 medium supplemented with 0.5% glucose, 50 μg mL^–1 ampicillin, and 12.5 μg mL^–1 chloramphenicol at 37 °C. Upon induction, a 1:500 dilution of the overnight culture was added to fresh M9 minimal medium containing 0.5% glucose, 50 μg mL^–1 ampicillin, 12.5 μg mL^–1 chloramphenicol, and 25 μM ThS. The subsequent steps mirrored those for the Aβ assay, including the addition of the compound to be tested dissolved in DMSO and 10 μL of 25% arabinose or, alternatively, 10 μL of water for the noninduced controls, with a final compound concentration of […]. Negative controls for tau overexpression utilized free DMSO.
ThS (T1892) and all other chemical reagents were purchased from Sigma (St. Louis, MO). Stock solutions of ThS (250 μM) were prepared using doubly distilled water purified via a Milli-Q system (Millipore). For the fluorescence assay, ThS spectra were recorded utilizing an AmincoBowman series 2 luminescence spectrophotometer (Aminco-Bowman AB2, SLM Aminco, Rochester, NY) within the range of 460 to 600 nm at a temperature of 25 °C. The excitation wavelength employed was 445 nm, with slit widths set at 4 nm. The emission at 485 nm, corresponding to the ThS peak observed in the presence of amyloids, was recorded. To standardize ThS fluorescence relative to bacterial concentration in both in vitro and cell-based assays, the OD600 was determined using a Shimadzu UV-2401 PC UV–vis spectrophotometer. Fluorescence normalization was executed by setting the ThS fluorescence of bacterial cells expressing the peptide or protein in the absence of the drug as 100%, while that of bacterial cells not expressing the peptide or protein was established as 0%.

T1 sequence (P10636 other isoform, or with tags, fused parts or gaps): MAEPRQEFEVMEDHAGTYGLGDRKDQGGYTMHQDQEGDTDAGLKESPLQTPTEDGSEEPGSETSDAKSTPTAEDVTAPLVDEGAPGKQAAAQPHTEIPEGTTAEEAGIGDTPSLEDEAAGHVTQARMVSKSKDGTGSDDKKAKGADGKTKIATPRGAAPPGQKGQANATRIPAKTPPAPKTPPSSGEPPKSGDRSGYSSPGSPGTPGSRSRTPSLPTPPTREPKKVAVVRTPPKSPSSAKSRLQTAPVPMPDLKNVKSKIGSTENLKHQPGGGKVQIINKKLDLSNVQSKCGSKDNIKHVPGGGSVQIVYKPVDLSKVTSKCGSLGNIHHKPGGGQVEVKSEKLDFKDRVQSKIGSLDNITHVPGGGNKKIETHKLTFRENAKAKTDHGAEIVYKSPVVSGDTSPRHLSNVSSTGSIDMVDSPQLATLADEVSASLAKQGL

With COc1ccc2c(=O)c3cc4c(cc3oc2c1)-c1cc(Cl)ccc1OC4 [Compound 11r, 2-Chloro-11-methoxy-6H,8H-chromeno[3,4-b]xanthen-8-one] the inhibition at 50 µM was 61.3 ± 5.9%.
